# PubChem BioAssay (NCI)
#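 Interpolation was linear, between the two tested concentrations surrounding the appropriate level; five concentrations were tested over 48 hours in 96-well plates. Abbreviation: GI50, concentration required for 50% inhibition of growth. At the TGI there is no net growth.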
# Assays:
# Test in all cases: inhibition of tumour cell growth, NCI panel, 48 h
# [1] = test system: M14 melanoma
# [2] = test system: MDA-MB-231 breast
# [3] = test system: MALME-3M melanoma
# [4] = test system: NCI/ADR-RES ovarian
# [5] = test system: HCC-2998 colon
# [6] = test system: SK-MEL-2 melanoma
# [7] = test system: OVCAR-5 ovarian
# [8] = test system: DU-145 prostate
# [9] = test system: SNB-75 CNS
# [10] = test system: 786-0 renal
# [11] = test system: MOLT-4 leukemia
# [12] = test system: KM12 colon
# [13] = test system: HOP-92 NSCLC
# [14] = test system: SF-295 CNS
# [15] = test system: UACC-257 melanoma
# [16] = test system: SK-OV-3 ovarian
# [17] = test system: HOP-62 NSCLC
# [18] = test system: TK-10 renal
# [19] = test system: HS 578T breast
# [20] = test system: MCF7 breast
# [21] = test system: COLO 205 colon
# [22] = test system: SF-539 CNS
# [23] = test system: HCT-116 colon
# [24] = test system: LOX IMVI melanoma
# [25] = test system: UACC-62 melanoma
# [26] = test system: MDA-MB-435
# [27] = test system: SK-MEL-28 melanoma
# [28] = test system: SN12C renal
# [29] = test system: SK-MEL-5 melanoma
# [30] = test system: A498 renal
# [31] = test system: HCT-15 colon
# [32] = test system: U251 CNS
# [33] = test system: UO-31 renal
# [34] = test system: PC-3 prostate
# [35] = test system: A549 NSCLC
# [36] = test system: CCRF-CEM leukemia
# [37] = test system: NCI-H460 lung
# [38] = test system: NCI-H23 lung
# [39] = test system: SW-620 colon
# [40] = test system: CAKI-1 renal
# [41] = test system: HL-60(TB) leukemia
# [42] = test system: RXF 393 renal
# [43] = test system: NCI-H226 lung
# [44] = test system: OVCAR-4 ovarian
# [45] = test system: OVCAR-8 ovarian
# [46] = test system: OVCAR-3 ovarian
# [47] = test system: BT-549 breast
# [48] = test system: EKVX NSCLC
# [49] = test system: ACHN renal
# [50] = test system: HT29 colon
# [51] = test system: NCI-H522 lung
# [52] = test system: RPMI-8226 leukemia
# [53] = test system: T-47D breast
# [54] = test system: SR leukemia
# [55] = test system: SF-268 CNS
# [56] = test system: K-562 leukemia
# [57] = test system: SNB-19 CNS
# [58] = test system: IGROV1 ovarian
smiles,measurement,setting,value
CC(=O)O[C@H]([C@H](OC(C)=O)[C@H](C)OC(C)=O)[C@@H](/C=C/[C@@H]1CC=CC(=O)O1)OC(C)=O,GI50,[1],42600 nM
same,TGI,[1],> 100000 nM
same,GI50,[2],> 100000 nM
same,TGI,[2],> 100000 nM
same,GI50,[3],> 100000 nM
same,TGI,[3],> 100000 nM
same,GI50,[4],> 100000 nM
same,TGI,[4],> 100000 nM
same,GI50,[5],29000 nM
same,TGI,[5],77200 nM
same,GI50,[6],24000 nM
same,TGI,[6],74400 nM
same,GI50,[7],> 100000 nM
same,TGI,[7],> 100000 nM
same,GI50,[8],37900 nM
same,TGI,[8],> 100000 nM
same,GI50,[9],30200 nM
same,TGI,[9],69600 nM
same,GI50,[10],90100 nM
same,TGI,[10],> 100000 nM
same,GI50,[11],> 100000 nM
same,TGI,[11],> 100000 nM
same,GI50,[12],> 100000 nM
same,TGI,[12],> 100000 nM
same,GI50,[13],17300 nM
same,TGI,[13],61700 nM
same,GI50,[14],15800 nM
same,TGI,[14],45900 nM
same,GI50,[15],> 100000 nM
same,TGI,[15],> 100000 nM
same,GI50,[16],> 100000 nM
same,TGI,[16],> 100000 nM
same,GI50,[17],57600 nM
same,TGI,[17],> 100000 nM
same,GI50,[18],> 100000 nM
same,TGI,[18],> 100000 nM
same,GI50,[19],54700 nM
same,TGI,[19],> 100000 nM
same,GI50,[20],33500 nM
same,TGI,[20],> 100000 nM
same,GI50,[21],33500 nM
same,TGI,[21],> 100000 nM
same,GI50,[22],34500 nM
same,TGI,[22],92700 nM
same,GI50,[23],33400 nM
same,TGI,[23],> 100000 nM
same,GI50,[24],57100 nM
same,TGI,[24],> 100000 nM
same,GI50,[25],> 100000 nM
same,TGI,[25],> 100000 nM
same,GI50,[26],19800 nM
same,TGI,[26],> 100000 nM
same,GI50,[27],40400 nM
same,TGI,[27],> 100000 nM
same,GI50,[28],84100 nM
same,TGI,[28],> 100000 nM
same,GI50,[29],44500 nM
same,TGI,[29],> 100000 nM
same,GI50,[30],50200 nM
same,TGI,[30],> 100000 nM
same,GI50,[31],44200 nM
same,TGI,[31],> 100000 nM
same,GI50,[32],> 100000 nM
same,TGI,[32],> 100000 nM
same,GI50,[33],20100 nM
same,TGI,[33],39900 nM
same,GI50,[34],13900 nM
same,TGI,[34],> 100000 nM
same,GI50,[35],> 100000 nM
same,TGI,[35],> 100000 nM
same,GI50,[36],41500 nM
same,TGI,[36],> 100000 nM
same,GI50,[37],42000 nM
same,TGI,[37],> 100000 nM
same,GI50,[38],35600 nM
same,TGI,[38],> 100000 nM
same,GI50,[39],40000 nM
same,TGI,[39],> 100000 nM
same,GI50,[40],29800 nM
same,TGI,[40],83600 nM
same,GI50,[41],> 100000 nM
same,TGI,[41],> 100000 nM
same,GI50,[42],> 100000 nM
same,TGI,[42],> 100000 nM
same,GI50,[43],> 100000 nM
same,TGI,[43],> 100000 nM
same,GI50,[44],45300 nM
same,TGI,[44],> 100000 nM
same,GI50,[45],40600 nM
same,TGI,[45],> 100000 nM
same,GI50,[46],17100 nM
same,TGI,[46],41900 nM
same,GI50,[47],22300 nM
same,TGI,[47],51300 nM
same,GI50,[48],> 100000 nM
same,TGI,[48],> 100000 nM
same,GI50,[49],> 100000 nM
same,TGI,[49],> 100000 nM
same,GI50,[50],72100 nM
same,TGI,[50],> 100000 nM
same,GI50,[51],2050 nM
same,TGI,[51],4730 nM
same,GI50,[52],29700 nM
same,TGI,[52],99500 nM
same,GI50,[53],27400 nM
same,TGI,[53],> 100000 nM
same,GI50,[54],77500 nM
same,TGI,[54],> 100000 nM
same,GI50,[55],28900 nM
same,TGI,[55],> 100000 nM
same,GI50,[56],> 100000 nM
same,TGI,[56],> 100000 nM
same,GI50,[57],59500 nM
same,TGI,[57],> 100000 nM
O=C1/C(=C/c2ccccc2)CN(C(=O)C(Cl)Cl)C/C1=C\c1ccccc1,GI50,[1],622 nM
same,TGI,[1],2150 nM
same,GI50,[2],807 nM
same,TGI,[2],2460 nM
same,GI50,[3],996 nM
same,TGI,[3],3060 nM
same,GI50,[4],452 nM
same,TGI,[4],4920 nM
same,GI50,[5],703 nM
same,TGI,[5],1980 nM
same,GI50,[58],708 nM
same,TGI,[58],2200 nM
same,GI50,[6],1790 nM
same,TGI,[6],4070 nM
same,GI50,[7],1060 nM
same,TGI,[7],2850 nM
same,GI50,[8],1210 nM
same,TGI,[8],2470 nM
same,GI50,[9],1090 nM
same,TGI,[9],2310 nM
same,GI50,[10],1380 nM
same,TGI,[10],2820 nM
same,GI50,[11],369 nM
same,GI50,[12],267 nM
same,TGI,[12],845 nM
same,GI50,[13],1260 nM
same,TGI,[13],3090 nM
same,GI50,[14],597 nM
same,TGI,[14],1860 nM
same,GI50,[15],1420 nM
same,TGI,[15],3130 nM
same,GI50,[16],1770 nM
same,TGI,[16],3230 nM
same,GI50,[17],1390 nM
same,TGI,[17],2840 nM
same,GI50,[18],1790 nM
same,TGI,[18],3220 nM
same,GI50,[19],1320 nM
same,TGI,[19],6860 nM
same,GI50,[20],113 nM
same,TGI,[20],886 nM
same,GI50,[21],1190 nM
same,TGI,[21],3010 nM
same,GI50,[22],884 nM
same,TGI,[22],2250 nM
same,GI50,[23],209 nM
same,TGI,[23],527 nM
same,GI50,[24],139 nM
same,TGI,[24],353 nM
same,GI50,[25],702 nM
same,TGI,[25],2000 nM
same,GI50,[26],312 nM
same,TGI,[26],1030 nM
same,GI50,[27],680 nM
same,TGI,[27],1810 nM
same,GI50,[28],430 nM
same,TGI,[28],1260 nM
same,GI50,[29],698 nM
same,TGI,[29],1940 nM
same,GI50,[30],1480 nM
same,TGI,[30],3000 nM
same,GI50,[31],248 nM
same,TGI,[31],770 nM
same,GI50,[32],325 nM
same,TGI,[32],1240 nM
same,GI50,[33],1290 nM
same,TGI,[33],2620 nM
same,GI50,[34],297 nM
same,TGI,[34],1080 nM
same,GI50,[35],1700 nM
same,TGI,[35],3920 nM
same,GI50,[36],152 nM
same,GI50,[37],1300 nM
same,TGI,[37],3010 nM
same,GI50,[38],822 nM
same,TGI,[38],2730 nM
same,GI50,[39],135 nM
same,TGI,[39],440 nM
same,GI50,[40],1420 nM
same,TGI,[40],2950 nM
same,GI50,[41],360 nM
same,TGI,[41],2040 nM
same,GI50,[42],914 nM
same,TGI,[42],2330 nM
same,GI50,[43],1220 nM
same,TGI,[43],5170 nM
same,GI50,[44],1120 nM
same,TGI,[44],2440 nM
same,GI50,[45],442 nM
same,TGI,[45],1680 nM
same,GI50,[46],330 nM
same,TGI,[46],1060 nM
same,GI50,[47],1240 nM
same,TGI,[47],2690 nM
same,GI50,[48],894 nM
same,TGI,[48],3060 nM
same,GI50,[49],438 nM
same,TGI,[49],1440 nM
same,GI50,[50],295 nM
same,TGI,[50],1060 nM
same,GI50,[51],1080 nM
same,TGI,[51],2690 nM
same,GI50,[52],47.4 nM
same,TGI,[52],278 nM
same,GI50,[53],1190 nM
same,TGI,[53],4110 nM
same,GI50,[54],110 nM
same,GI50,[55],1750 nM
same,TGI,[55],5200 nM
same,GI50,[56],134 nM
same,GI50,[57],495 nM
same,TGI,[57],1780 nM
